Consider one compound from patent US20210290624A1, “METHODS OF TREATING CANCERS CHARACTERIZED BY A HIGH EXPRESSION LEVEL OF SPINDLE AND KINETOCHORE ASSOCIATED COMPLEX SUBUNIT 3 (SKA3) GENE” (UNIVERSITY HEALTH NETWORK, priority 2018, published 2021).

The experiment relates to breast cancer cell lines. The experiment can be described thus: sulforhodamine B (SRB) drug sensitivity assay in breast cancer cell line panel. The format is cell-based. The settings on record: panel of 52 breast cancer cell lines, 5 days of treatment, FIG. 1. From the text: A breast cancer cell line panel, previously described (Marcotte et al., Cell, 164(1-2), 2016293-309), was assembled for in vitro drug sensitivity profiling, and mated with available gene expression data. The RNA-seq reads were aligned to the Ensembl Genome Reference Consortium release GRCh38 using Kallisto pipeline (Bray et al., Nature Biotechnology, 201634(5), 525-527). Expression values were computed as log2(TPM+0.001), where TPM represents the number of transcripts per million mapped reads units which control for sequence length and sequencing depth. The status of SKA3 expression (high vs low expression) can be determined from a reference population such as the breast cancer TCGA cohort (see FIG. 6).
Response of breast cancer cell lines to compound CFI-402257 (a TTK inhibitor, see the structure below) was evaluated using sulforhodamine B (SRB) assays. The compound was synthesized as previously described (See Liu et al., ACS Medicinal Chemistry Letters, 20167(7), 671-675).
Cells were seeded in 96-well plates and treated with serial drug dilutions. After 5 days of treatment, cells were fixed, stained with SRB, solubilized, and absorbance quantified on a spectrophotometer. For all drug response assays, cell viabilities are reported as the proportion of growth in drug relative to DMSO treated conditions. […]

In the case of `Cc1cc(-c2cnn3c(NC[C@H]4C[C@@](C)(O)C4)cc(Oc4cccnc4)nc23)ccc1C(=O)NC1CC1` [CFI-402257], the “in vitro sensitivity (area above the drug dose-response curve, AAC)” value was “Differential in vitro sensitivity”.
